Experimental data reported in paper PMC3582901 (Angewandte Chemie (International ed. in English), 2011).

Target: DYNLL1 (dynein light chain type 1) (Homo sapiens, UniProt P63167)
Assay: isothermal titration calorimetry
Assay type: binding

Sequence of DYNLL1 (dynein light chain type 1) (P63167 whole entry): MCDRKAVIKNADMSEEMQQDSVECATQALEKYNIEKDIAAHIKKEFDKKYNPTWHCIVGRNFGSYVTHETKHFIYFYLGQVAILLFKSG

C=C(C)[C@@H](CC[C@]1(C)O[C@@H]([C@](C)(O)[C@@H]2CC[C@H]3O[C@@H]([C@]4(C)CC[C@@H](Br)C(C)(C)O4)CC[C@]3(C)O2)C[C@H]1O)OC [1a, aplysqualenol A]
Kd: 840 ± 310 nM
